The values below are quoted from earlier work in patent US4127541A, “Novel decapeptides, intermediates therefor, and compositions and methods employing said decapeptides” (priority 1977, dated 1978).

For series [1], the system named is brain opiate receptor sites.
For series [2] the following is noted: injected directly into the brain of the rat.

Take “H-Tyr-Gly-Gly-Phe-Met-OH [methionine enkephalin]”: the “binding to partially purified brain opiate receptor sites” value in series [1] is “binds stereo-specifically”. Also, in series [2], the analgesic activity entry is recorded as “weak analgesic agent of short duration”.
